Experiment [1] relates to skin explant cultures. As to the kind of experiment: ELISA assay for cortisol released from skin explant cultures. To be noted: for effect on cortisol production (in words): 24 hours, metyrapone 200 μM; for induction of cortisol levels / cortisol production: after 24 hours, ACTH 0.1 μM, progesterone 1 μM. It counts as cell-based, human. The protocol:
(§1) Cells were cultured to 80% of confluency as described above in Example 1(C). 200 μl of the medium was collected at 0, 6, 12, 24, and 48 hours after the switch to basal medium, and cortisol production was measured using ELISA kit (R & D Systems, Minneapolis, Minn.) following commercial protocol.
(§2) To further confirm that keratinocytes produce glucocorticoids de novo, medium was collected from cultured cells grown in the minimal medium in the absence of any alternative GC source as described in Example 1(C). Cortisol production was measured after 0, 6, 12, 24, and 48 hours using the ELISA assay described in Example 1(E). To confirm the production in tissue, the production of cortisol released from skin in explant cultures was measured. As shown in FIG. 3(B), 11.1 ng/ml of cortisol was released by the skin.
A further experiment was performed where prior to measurement both the keratinocytes and the skin explant cultures were stimulated with 0.1 μM of ACTH. Cortisol production was measured after 24 hours using the ELISA assay described in Example 1(E). […] The addition of 1 μM of progesterone as a substrate for glucocorticoid synthesis lead to a 2.5 fold induction in cortisol production in both cells and skin (FIG. 7B). The addition of 200 μM metyrapone (Sigma) decreased endogenous levels of cortisol production (FIG. 7B).
(§3) To determine if injury-related molecules affect cortisol synthesis, IL-1 or IGF-1 was added to keratinocytes cultured as described in Example 1(C) or skin explants. IL-1 is a primary injury-response pro-inflammatory signal whereas IGF-1 is known to modulate glucocorticoid metabolism (Rappolee et al. (1988) Science 241:708-12). ACTH was used as a positive control. Cortisol levels were measured 24 hours post-treatment using the ELISA assay described in Example 1(E). […] In contract, IGF-1 inhibited cortisol production in both treated cells and tissue (FIG. 8(A)).
For orientation: In an ELISA, binding on a coated surface is turned into a signal by an enzyme label.

The test system of experiment [2] is acute wounds in human skin specimens. As to the kind of experiment: Epithelialization in acute wounding model of human skin (histology). The note with it: topical; air-liquid interface for 6 days; metyrapone 200 μM. The text has this:
Human skin specimens were obtained from discarded tissue in reduction mammoplasty following approved Hospital for Special Surgery protocol (#25121). Preparation of tissue with acute wounds was done as previously described (Tomic-Canic et al. (2007) Wound Repair Regen. 15(1):71-9); Stojadinovic et al. (2005) Am. J. Pathol. 167(1):59-69). The adipose tissue was removed, and circular templates of skin were generated using a 6 mm biopsy punch. A 3 mm biopsy punch was used to create an acute wound. The skin specimens were maintained at the air-liquid interface with DMEM (BioWhittaker, Walkersville, Md.) with antibiotics-antimycotics, and fetal bovine serum (FBS) (Gemini Bio-Products, Woodland, Calif.) for 0, 4, 48, and 96 hours in the presence or absence of 1 μM dexamethasone (Sigma, St. Louis, Mo.). Acute wounds were fixed in 4% paraformaldehyde (Sigma) at room temperature overnight, dehydrated with ethanol, cleared in chloroform, and embedded in paraffin.
The effect of glucocorticoids on epithelialization was tested using the acute wounding model described in Example 1(A). The wounded skin was maintained at the air-liquid interface for 6 days. Wounds were maintained in the presence or absence of clobetasol propionate (routinely used by dermatologists in the treatment of inflammatory skin disorders). Healing rates was determined by histology. […]

For experiment [3], the system named is c-myc. As to the kind of experiment: Northern Blot and Western Blot of c-myc in keratinocytes and tissue. It counts as cell-based, human. The procedure: Keratinocytes were grown to 80% confluency, switched to the basal media for 24 hours, and incubated with 1 mM dexamethasone (Sigma) for 24 and 48 hours. Cells were harvested by trypsinization and cytoplasmic and nuclear fractions were obtained using Nuclear Extract Kit (Active Motif, Carlsbad, Calif.) following commercial protocol. 15 μg of each fraction was separated on a 10% SDS-PAGE gel. The proteins were then transferred to a nitrocellulose membrane (Protran®, Bioscience, Dassel, Germany) using the semi-dry transfer system (BioRad, Hercules, Calif.). Ponceau S was used to check the efficiency of the transfer. […] The membrane was washed 3 times for 5 minutes in TTBS and then incubated at 4° C. overnight with GR antibody (1:500) (Affinity Bioreagents) followed with horseradish […] (HRP) conjugated to anti-rabbit secondary antibody (1:1000) (Santa Cruz Biotech, Santa Cruz, Calif.). Immune complexes were visualized using Super Signal West Pico Chemiluminescent substrate (Pierce, Rockford, Ill.). Immunoblot was exposed on x-ray film (HyBlot CL, Denville, N.J.) according to manufacturer's instruction.
It was also found by Northern Blot analysis using acute wound tissue that c-myc was induced at 96 hours post-wounding (FIG. 11(B)).
Using Western Blot analysis, it was shown that protein levels of c-myc were induced by exogenous glucocorticoid and blocked by metyrapone (FIG. 11(C)).
(Immunoblotting shows a protein as a band on a membrane.)

Experiment [4] concerns glucocorticoid receptor. Description: Immunohistochemistry of phosphorylated (hormone-activated) GR in acute wound sections. Further details: species or system human. The note with it: treated acute wound samples.
Description: Human skin specimens were obtained from discarded tissue in reduction mammoplasty following approved Hospital for Special Surgery protocol (#25121). […] The adipose tissue was removed, and circular templates of skin were generated using a 6 mm biopsy punch. A 3 mm biopsy punch was used to create an acute wound. […] Acute wounds were fixed in 4% paraformaldehyde (Sigma) at room temperature overnight, dehydrated with ethanol, cleared in chloroform, and embedded in paraffin.
Six μm tissue sections were serially cut on a microtome (HM 315, Carl Zeiss, New York, N.Y.) and mounted on slides. Sections were dewaxed in xylene, re-hydrated and washed with 1× phosphate buffered saline (PBS). For antigen retrieval, paraffin sections were heated in a 95° C. water bath in Target Retrieval Solution (DAKO Corporation, Carpinteria, Calif.). Histological slides were treated with 3% H2O2/30% MeOH for 30 minutes, rinsed with water, and blocked with normal rabbit serum for 30 minutes (Vectastatin Kit Elite ABC, Vectorlabs, Burlingame, Calif.). […] Sections were analyzed using a Carl Zeiss microscope. […]
Experiment [5] concerns primary human keratinocytes. As to the kind of experiment: ELISA assay for cortisol in medium of cultured keratinocytes. It counts as cell-based. The note with it: for effect on cortisol production (in words) / induction of cortisol levels / cortisol production: keratinocytes; for effect on cortisol production (in words): 24 hours, metyrapone 200 μM; for induction of cortisol levels / cortisol production: after 24 hours, ACTH 0.1 μM, progesterone 1 μM. The procedure: Normal human epidermal keratinocytes were initiated using 3T3 feeder layers as previously described (Randolph and Simon (1993) J. Biol. Chem. 268(13):9198-9205) and frozen in liquid nitrogen until use. Once thawed, the keratinocytes were grown without feeder cells in defined serum-free keratinocyte medium supplemented with epidermal growth factor and bovine pituitary extract (keratinocyte-SFM, GIBCO, Carlsbad, Calif.). Cells were expanded through two 1:4 passages before they were grown to 80% confluency. Cells were washed several times with 1×PBS before they were incubated with basal keratinocyte medium (GIBCO) custom made without hydrocortisone and thyroid hormone.
as §1, §2
Cortisol production was measured after 24 hours using the ELISA assay described in Example 1(E). […] The addition of 1 μM of progesterone as a substrate for glucocorticoid synthesis lead to a 2.5 fold induction in cortisol production in both cells and skin (FIG. 7B). The addition of 200 μM metyrapone (Sigma) decreased endogenous levels of cortisol production (FIG. 7B).
as §3

The subject of experiment [6] is β-catenin. As to the kind of experiment: Immunohistochemistry of phosphorylated β-catenin in chronic wound biopsies (diabetic foot ulcers). The note with it: topically applied to chronic wound biopsies. Also on record: species or system human. The procedure:
Chronic wound tissue was obtained from discarded tissue of biopsies of consenting patients having surgical debridement using approved Columbia University protocol.
Slides were counterstained with hematoxylin. […] Sections were analyzed using a Carl Zeiss microscope. Digital images were taken with Adobe TWAIN—32 program.
It has been previously reported that β-catenin and c-myc participate in inhibition of wound healing and contribute to the impairment of healing in chronic wounds. […] To test if endogenous glucocorticoid participates in β-catenin activation in patients with chronic wounds, metyrapone was topically applied to chronic wound biopsies from patients with diabetic foot ulcers (as described in Example 1(A)). The effects were evaluated by measuring phosphorylation and intracellular translocation of β-catenin by immunohistochemistry as described in Example 1(B), except using an antibody targeting phosphorylated (activated) form of β-catenin (Cell Signaling Technology, Danvers, Mass.). […] As also shown in FIG. 12, this effect can be reversed by the addition of an exogenous glucocorticoid.

Experiment [7] concerns CYP11B1. Description: RT-PCR of CYP11B1 expression in treated keratinocytes. Format: cell-based, human. The procedure: RNA isolation and purification was performed using Triazol (Invitrogen, Carlsbad, Calif.) extraction and subsequent Qiagen RNeasy Kit column purification (Qiagen, Alameda, Calif.). Reverse transcription and amplification were performed using primers CYP11B1 fw GCTAGACATAGGGGCTCC (SEQ ID no. 1), CYP11B1-rev AGGTGTTTCAGCACATGG (SEQ ID no. 2)and Access RT-PCR Kit (Promega, Madison, Wis.) as follows: (a) reverse transcription—1 cycle at 48° C. for 45 minutes; (b) AMV RT inactivation and RNA/cDNA primer denaturation—1 cycle at 94° C. for 2 minutes; (c) second strand cDNA synthesis and PCR amplification—35 cycles: denaturation for 30 seconds, annealing at 51° C. for 1 minute and extension at 68° C. for 2 minutes; and (d) final extension—1 cycle at 68° C. for 7 minutes. Samples were separated by electrophoresis on 2% agarose gels containing 0.5 μg/ml of ethidium bromide and visualized under UV light.
To elucidate the possible mechanism of regulation involved in these observations, the expression of CYP11B1 was measured using RT-PCR as described in Example 1(G). The expression levels of CYP11B1 corresponded to the cortisol production. IL-1 induced the expression of CYP11B1 similar to ACTH, whereas IGF-1 inhibited its expression (FIG. 8(B)).

Results on six compounds are retold here after US8802660B2, “De novo synthesis of glucocorticoids in the epidermis and its uses and applications” (New York University, priority 2007, dated 2014).

As to `[Ca+2].[Cl-].[Cl-]` [CaCl2], the “effect on cortisol production in the skin” value in experiment [1] (increased CaCl2 levels) is recorded as “decrease”.
For `CCC(=O)O[C@]1(C(=O)CCl)[C@@H](C)C[C@H]2[C@@H]3CCC4=CC(=O)C=C[C@]4(C)[C@@]3(F)[C@@H](O)C[C@@]21C` [clobetasol propionate], the “epithelialization / wound closure” value in experiment [2] was “completely inhibited epithelialization”.
For the compound `CC(C)(C(=O)c1cccnc1)c1cccnc1` [metyrapone], in experiment [3], the “protein levels of c-myc (Western Blot)” value is reported as “blocked”. Further, the “hormone-activated GR in the nucleus (anti-phospho-Ser211 staining)” value in experiment [4] is given as “absence of GR in the nucleus”. The “effect on cortisol production (in words)” value in experiment [5] and in experiment [1] (skin explants) was “decreased” throughout. Further, the “epithelialization / wound closure” value in experiment [2] is “complete wound closure”. Further, the “β-catenin phosphorylation and nuclearization” value in experiment [6] was “abolished”.
As to `CC(=O)[C@H]1CC[C@H]2[C@@H]3CCC4=CC(=O)CC[C@]4(C)[C@H]3CC[C@]12C` [progesterone], the “induction of cortisol levels / cortisol production” value in experiment [5] and in experiment [1] (skin explants) was 2.5 fold throughout.
Consider “IGF-1: known to modulate glucocorticoid metabolism”, for which, in experiment [7], the “expression of CYP11B1 (RT-PCR)” value is given as “inhibited”. The “effect on cortisol production (in words)” value in experiment [5] and in experiment [1] (skin explants) was “inhibited” in each case.
In the case of “adrenocorticotropic hormone (SYSMEHFRWGKPVGKKRRPVKVYPNGAEDESAEAFPLEF; Corticotropin; UniProt P01189 138-176, looked up) [ACTH, stimulates synthesis of glucocorticoid]”, the “expression of CYP11B1 (RT-PCR)” value in experiment [7] is listed as “induced”. For the same compound, the “induction of cortisol levels” value in experiment [5] (keratinocytes in culture, 0.1mM of ACTH) stood at 2.7 fold; in experiment [1] (skin explants, 0.1 μM of ACTH), 2.01 fold. The results for the “induction of cortisol levels / cortisol production” value in experiment [5] and in experiment [1] (skin explants) were 2.7 fold and 2.0 fold, respectively.
